# From US7045600B2, “Modification of collagenous materials and medical treatment, diagnosis and monitoring of fibrotic conditions” (Nederlandse Organisatie voor …, priority 1999, dated 2006)
# B1: TGF-β2: human recombinant TGF-β2 (protein, UniProt P61812 303-414, looked up)
# Transforming growth factor …: ALDAAYCFRNVQDNCCLRPLYIDFKRDLGWKWIHEPKGYNANFCAGACPYLWSSDTQHSRVLSLYNTINPEASASPCCVSQDLEPLTILYYIGKTPKIEQLSNMIVKSCKCS
# B2: TGF-β3: human recombinant TGF-β3 (protein, UniProt P10600 301-412, looked up)
# Transforming growth factor …: ALDTNYCFRNLEENCCVRPLYIDFRQDLGWKWVHEPKGYYANFCSGPCPYLRSADTTHSTVLGLYNTLNPEASASPCCVPQDLEPLTILYYVGRTPKVEQLSNMVVKSCKCS
# Experiments:
# [1] = system: helical lysyl hydroxylase; details: cited from earlier work
# PLOD2B mRNA [2] = experiment: PLOD2B mRNA levels by real-time PCR in minoxidil-treated human skin fibroblasts and myofibroblasts; format: cell-based; details: 1 mM minoxidil, 41 hours, versus untreated (FIG. 8)
# Description: To substantiate that minoxidil suppresses the expression of PLOD2, human skin fibroblasts and myofibroblasts were cultured in 25 cm^2 flasks in DMEM (Gibco) supplemented with 10% FBS in 5% CO2. At near confluency the fibroblasts and myofibroblasts were incubated for 41 hours in medium containing 1 mM minoxidil. Minoxidil was dissolved at room temperature in medium with 10% FBS for 8 hours which was filtered prior to use. As a control both cell types were incubated for 41 hours in medium without minoxidil. At the end of the incubation period, the cells were washed with PBS and lysed with 600 μl RLT-buffer (RNeasy kit, Qiagen). RNA was isolated following the manufacturers protocol and subsequently reverse transcribed into cDNA (first strand cDNA synthesis kit, Roche Molecular Biochemicals). The levels of PLOD2B mRNA in the untreated and minoxidil-treated cells were quantified using real-time PCR as described in example 8. […]
# Real time PCR amplification of PLOD2 and β2-microglobulin was performed, using specific primers (PLOD2 forward primer: 5′ […] 3′ (SEQ ID NO:48) PLOD2 reverse primer: 5′ […] 3′ (SEQ ID NO:49)β2-microglobulin forward primer; 5′ […] 3 (SEQ ID NO:50)β32-microglobulin reverse primer 5′ […] 3′) (SEQ ID NO:51) and specific molecular beacons PLOD2: 5′ FAM-cgtgcg[…] […] Data was analysed using sequence detector V1.7 software.
# [3] = system: lysyl hydroxylation level of the telopeptides (pyridinoline cross-links) in chondrocytes; experiment: Pyridinoline (HP and LP) cross-links in collagen from calf chondrocytes cultured in alginate beads with minoxidil; format: cell-based, calves; details: culture period of 20–50 days
# Description: Chondrocytes from the metacarpophalangeal joint of calves (12–14 months old, local slaughterhouse) were isolated by collagenase digestion: cartilage slices were minced and digested overnight at 37° C. in 0.14% (w/v) collagenase (Worthington CLS2) in Dulbecco's modified Eagle's medium (DMEM). After filtration of the suspension, cells were washed suspended in 1.2% (w/v) alginate (Keltone LVCR) in 0.9% NaCI at a density of 4×10^6 cells/ml, which was passed dropwise through a 22-gauge needle into 102 mM CaCl2. After 10 min of polymerization, beads were washed in 0.9% (w/v) NaCl (three times) and finally in complete medium: DMEM-Glutamax (Gibco BRL) supplemented with 100 U/ml of penicillin/streptomycin, 10% (v/v) foetal calf serum and 50 μg/ml ascorbic acid. The cells were cultured at 10 beads per 0.5 ml medium in a humid atmosphere of 5% CO2 in air at 37° C.; the medium was refreshed twice weekly. Minoxidil was dissolved in complete medium and added to the culture after 7 days of preculture under control conditions. Harvested beads were washed with 0.9% NaCl containing 10 mM CaCl2 and hydrolyzed in 900 μl 6 M HCl at 108° C. for 20–24 h. […] Based on hydroxyproline levels, amounts of collagen were calculated, assuming 300 hydroxyproline residues/triple helix. […] Crosslinks were expressed as amount of residues per collagen molecule.
# PLOD2B mRNA [4] = experiment: PLOD2B mRNA levels by real-time PCR in TGF-β-treated human skin fibroblasts; format: cell-based; details: for increase of PLOD2B mRNA levels: human skin fibroblasts, 1, 5 or 10 nM, 50 hours, versus untreated (FIG. 9)
# Description: Human skin fibroblasts were cultured in 25 cm^2 flasks in DMEM (Gibco) supplemented with 10% FBS in 5% CO2. At near confluency the fibroblasts and myofibroblasts were incubated for 50 hours in medium containing 1, 5 or 10 nM human recombinant TGF-β1, -β2 or -β3. As a control, human skin fibroblasts were incubated for 50 hours in medium without the addition of TGF-β. At the end of the incubation period, the cells were washed with PBS and lysed with 600 μl RLT-buffer (RNeasy kit, Qiagen). RNA was isolated following the manufacturers protocol and subsequently reverse transcribed into cDNA (first strand cDNA synthesis kit, Roche Molecular Biochemicals). The levels of PLOD2B mRNA in the untreated and TGF-β treated cells were quantified using real-time PCR as described in example 8.
# RNA, obtained from cultured human skin fibroblasts and cultured human myofibroblast, was isolated using the RNeasy kit (Qiagen). To remove any genomic DNA in the RNA sample, a Dnase treatment was carried out, using RQ1 Rnase-free Dnase (Promega). RNA was then reverse transcripted into cDNA and subjected to real time PCR amplification.
# Real time PCR amplification of PLOD2 and β2-microglobulin was performed, using specific primers (PLOD2 forward primer: 5′ […] 3′ (SEQ ID NO:48) PLOD2 reverse primer: 5′ […] 3′ (SEQ ID NO:49)β2-microglobulin forward primer; 5′ […] 3 (SEQ ID NO:50)β32-microglobulin reverse primer 5′ […] 3′) (SEQ ID NO:51) and specific molecular beacons PLOD2: 5′ FAM-cgtgcg[…] (SEQ ID NO:52) cgcacg-DABCYL 3 ′; β2-microglobulin: 5′HEX-cgtgc[…] (SEQ ID NO:53) gcacg-DABCYL 3′). PLOD2 was amplified in a multiplex PCR together with β2-microglobulin in a total reaction volume of 25μl, containing 1×PCR buffer (Applied Biosystems), 0.4 mM of each dNTP, 3.5 mM Mg^2+, 250 nM of each target primer, 100 nM of each primer for μ2microglobulin and 1 unit Amplitaq Gold polymerase (Applied Biosystems). PCR was performed in a ABI PRISM® 7700 Sequence Detection System and consisted of a 5 minute interval at 95° C., followed by 40 cycles of 95° C. for 30 seconds, 56° C. for 40 seconds and 72° C. for 30 seconds. Data was analysed using sequence detector V1.7 software.
molecule,measurement,setting,value
CCOC(=O)CC(SP(=O)(OC)OC)C(=O)OCC (stereo not shown) [malaoxon],helical lysyl hydroxylase inhibition,[1],inhibit
CCOC(=O)CC(SP(=S)(OC)OC)C(=O)OCC (stereo not shown) [malathion],helical lysyl hydroxylase inhibition,[1],inhibit
Nc1cc(N2CCCCC2)nc(N)[n+]1[O-] [minoxidil],reduction of PLOD2B mRNA levels,PLOD2B mRNA [2]; human myofibroblasts,about 15 fold
same,reduction of PLOD2B mRNA levels,PLOD2B mRNA [2]; human skin fibroblasts,4 fold
same,"amount of pyridinolines (HP and LP), mean",[3]; alginate beads cultured with 0.3 mM minoxidil,0.38 residues/collagen molecule
same,"amount of pyridinolines (HP and LP), mean",[3]; alginate beads cultured with 1.0 mM or 2.0 mM minoxidil,around 0.15 residues/collagen molecule
TGF-β,"expression of PLOD2B (FIG. 9 legend, in words)","PLOD2B mRNA [4]; fibroblasts, TGF-β added to the culture medium",increased
TGF-β1: human recombinant TGF-β1,increase of PLOD2B mRNA levels,PLOD2B mRNA [4],about 20 fold
B1,increase of PLOD2B mRNA levels,PLOD2B mRNA [4],about 20 fold
B2,increase of PLOD2B mRNA levels,PLOD2B mRNA [4],about 20 fold
